Experimental data from PubChem BioAssay AID2060910 (Molecular Pharmacology Branch, DTP, NCI, 2025).

Test system: 242566-281-R-J2-PDC complex spheroid viability
Test: Anticancer human tumor 242566-281-R-J2-PDC patient-derived pancreatic carcinoma cell line growth inhibition [RAS]
Conditions: for IC50: curve of first compound; for viability, T/C: stronger effect = lower value
Procedure, shortened: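 Multi-cell-type spheroids: tumor cells plus HUVEC endothelial cells and mesenchymal stem cells. RAS-pathway inhibitors were combined with targeted agents, each dosed in half-log steps down from clinical Cmax, or from 10 microM when Cmax was unknown.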

[1] = second compound 0.000949 µM, first compound 0.0316 µM
[2] = second compound 0.000949 µM, first compound 0.1 µM
[3] = second compound 0.000949 µM, first compound 0.316 µM
[4] = second compound 0.000949 µM, first compound 1 µM
[5] = second compound 0.000949 µM, first compound 3.16 µM
[6] = second compound 0.000949 µM, first compound 10 µM
[7] = second compound 0.003 µM, first compound 0.0316 µM
[8] = second compound 0.003 µM, first compound 0.1 µM
[9] = second compound 0.003 µM, first compound 0.316 µM
[10] = second compound 0.003 µM, first compound 1 µM
[11] = second compound 0.003 µM, first compound 3.16 µM
[12] = second compound 0.003 µM, first compound 10 µM
[13] = second compound 0.00949 µM, first compound 0.0316 µM
[14] = second compound 0.00949 µM, first compound 0.1 µM
[15] = second compound 0.00949 µM, first compound 0.316 µM
[16] = second compound 0.00949 µM, first compound 1 µM
[17] = second compound 0.00949 µM, first compound 3.16 µM
[18] = second compound 0.00949 µM, first compound 10 µM
[19] = second compound 0.03 µM, first compound 0.0316 µM
[20] = second compound 0.03 µM, first compound 0.1 µM
[21] = second compound 0.03 µM, first compound 0.316 µM
[22] = second compound 0.03 µM, first compound 1 µM
[23] = second compound 0.03 µM, first compound 3.16 µM
[24] = second compound 0.03 µM, first compound 10 µM
[25] = second compound 0.0949 µM, first compound 0.0316 µM
[26] = second compound 0.0949 µM, first compound 0.1 µM
[27] = second compound 0.0949 µM, first compound 0.316 µM
[28] = second compound 0.0949 µM, first compound 1 µM
[29] = second compound 0.0949 µM, first compound 3.16 µM
[30] = second compound 0.0949 µM, first compound 10 µM
[31] = second compound 0.3 µM, first compound 0.0316 µM
[32] = second compound 0.3 µM, first compound 0.1 µM
[33] = second compound 0.3 µM, first compound 0.316 µM
[34] = second compound 0.3 µM, first compound 1 µM
[35] = second compound 0.3 µM, first compound 3.16 µM
[36] = second compound 0.3 µM, first compound 10 µM
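Also: spheroids exposed to compound for 7 days before readout.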
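For viability, T/C in this document: 100% = DMSO vehicle control wells.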

`CC1(O)CCCC1n1c(=O)c(C(F)F)cc2cnc(NC3CCN(S(C)(=O)=O)CC3)nc21` (stereo not drawn) + CCn1c(-c2cc(N3CCN(C)CC3)cnc2C(C)OC)c2c3cc(ccc31)-c1csc(n1)CC(NC(=O)C1CC1C)C(=O)N1CCCC(N1)C(=O)OCC(C)(C)C2 was tested, and the IC50 (second compound 0.000949 µM) was 6350 nM, the IC50 (second compound 0.003 µM) was 4930 nM and the IC50 (second compound 0.00949 µM) was 31.6 nM. For the same molecule, the IC50 (second compound 0.03 µM) was < 31.6 nM, the IC50 (second compound 0.0949 µM) was < 31.6 nM and the IC50 (second compound 0.3 µM) was < 31.6 nM. It also gave a viability, T/C [1] of 85.7%, a viability, T/C [2] of 84% and a viability, T/C [3] of 72.8%. The viability, T/C [4] was 98.9%, the viability, T/C [5] was 98.1% and the viability, T/C [6] was 25.2%. For the same molecule, the viability, T/C [7] was 73%, the viability, T/C [8] was 58.6% and the viability, T/C [9] was 64.7%. The viability, T/C [10] was 73.3%, the viability, T/C [11] was 82.5% and the viability, T/C [12] was 17.2%. For the same molecule, the viability, T/C [13] was 43.7%, the viability, T/C [14] was 42.2% and the viability, T/C [15] was 49.5%. For the same molecule, the viability, T/C [16] was 51.4%, the viability, T/C [17] was 53.2% and the viability, T/C [18] was 14.7%. For the same molecule, the viability, T/C [19] was 25.7%, the viability, T/C [20] was 28.7% and the viability, T/C [21] was 30.8%. It also gave a viability, T/C [22] of 35.6%, a viability, T/C [23] of 30.7% and a viability, T/C [24] of 18.1%. For the same molecule, the viability, T/C [25] was 23.1%, the viability, T/C [26] was 23.8% and the viability, T/C [27] was 22%. It also gave a viability, T/C [28] of 28.7%, a viability, T/C [29] of 22.5% and a viability, T/C [30] of 15.1%. It also gave a viability, T/C [31] of 18%, a viability, T/C [32] of 18.6% and a viability, T/C [33] of 20.5%. For the same molecule, the viability, T/C [34] was 23.6%, the viability, T/C [35] was 26.8% and the viability, T/C [36] was 14.1%.
In the case of `CCC(CC)c1cc(NC2CCC(N)C2)n2nccc2n1` (stereo not drawn) + CCn1c(-c2cc(N3CCN(C)CC3)cnc2C(C)OC)c2c3cc(ccc31)-c1csc(n1)CC(NC(=O)C1CC1C)C(=O)N1CCCC(N1)C(=O)OCC(C)(C)C2, the IC50 (second compound 0.000949 µM) is reported as 2620 nM, the IC50 (second compound 0.003 µM) is reported as 2040 nM and the IC50 (second compound 0.00949 µM) is reported as < 31.6 nM. For the same molecule, the IC50 (second compound 0.03 µM) was < 31.6 nM, the IC50 (second compound 0.0949 µM) was < 31.6 nM and the IC50 (second compound 0.3 µM) was < 31.6 nM. For the same molecule, the viability, T/C [1] was 90.9%, the viability, T/C [2] was 88.3% and the viability, T/C [3] was 77.8%. For the same molecule, the viability, T/C [4] was 90.1%, the viability, T/C [5] was 42.9% and the viability, T/C [6] was 1.28%. It also gave a viability, T/C [7] of 80.1%, a viability, T/C [8] of 74.2% and a viability, T/C [9] of 65.4%. It also gave a viability, T/C [10] of 74.9%, a viability, T/C [11] of 35.5% and a viability, T/C [12] of 1.04%. It also gave a viability, T/C [13] of 50.9%, a viability, T/C [14] of 39.1% and a viability, T/C [15] of 45.9%. It also gave a viability, T/C [16] of 45.8%, a viability, T/C [17] of 18.8% and a viability, T/C [18] of 1.43%. It also gave a viability, T/C [19] of 32.2%, a viability, T/C [20] of 29.8% and a viability, T/C [21] of 27.9%. For the same molecule, the viability, T/C [22] was 29.8%, the viability, T/C [23] was 7.89% and the viability, T/C [24] was 2.28%. For the same molecule, the viability, T/C [25] was 22.3%, the viability, T/C [26] was 21% and the viability, T/C [27] was 23.2%. It also gave a viability, T/C [28] of 24.5%, a viability, T/C [29] of 8.03% and a viability, T/C [30] of 1.49%. It also gave a viability, T/C [31] of 20.7%, a viability, T/C [32] of 19.7% and a viability, T/C [33] of 20.5%. The viability, T/C [34] was 20.9%, the viability, T/C [35] was 6.77% and the viability, T/C [36] was 1.47%.
In the case of `Cc1nc(N2CCC3(CC2)COC(C)C3N)c(CO)nc1Sc1ccnc(N)c1Cl` (stereo not drawn) + CCn1c(-c2cc(N3CCN(C)CC3)cnc2C(C)OC)c2c3cc(ccc31)-c1csc(n1)CC(NC(=O)C1CC1C)C(=O)N1CCCC(N1)C(=O)OCC(C)(C)C2, the IC50 (second compound 0.000949 µM) is reported as 353 nM, the IC50 (second compound 0.003 µM) is reported as 71.8 nM and the IC50 (second compound 0.00949 µM) is reported as < 31.6 nM. The IC50 (second compound 0.03 µM) was < 31.6 nM, the IC50 (second compound 0.0949 µM) was < 31.6 nM and the IC50 (second compound 0.3 µM) was < 31.6 nM. The viability, T/C [1] was 92.2%, the viability, T/C [2] was 69.8% and the viability, T/C [3] was 43.5%. The viability, T/C [4] was 45%, the viability, T/C [5] was 32.9% and the viability, T/C [6] was 19.8%. For the same molecule, the viability, T/C [7] was 61%, the viability, T/C [8] was 46.9% and the viability, T/C [9] was 31%. For the same molecule, the viability, T/C [10] was 28.2%, the viability, T/C [11] was 26.1% and the viability, T/C [12] was 16.1%. For the same molecule, the viability, T/C [13] was 41.3%, the viability, T/C [14] was 26.4% and the viability, T/C [15] was 27.9%. The viability, T/C [16] was 21.9%, the viability, T/C [17] was 19.4% and the viability, T/C [18] was 17.1%. The viability, T/C [19] was 25.8%, the viability, T/C [20] was 24.3% and the viability, T/C [21] was 19.3%. The viability, T/C [22] was 17.9%, the viability, T/C [23] was 15.1% and the viability, T/C [24] was 14.9%. It also gave a viability, T/C [25] of 21.5%, a viability, T/C [26] of 19.1% and a viability, T/C [27] of 18.5%. For the same molecule, the viability, T/C [28] was 16.9%, the viability, T/C [29] was 14.3% and the viability, T/C [30] was 15.4%. It also gave a viability, T/C [31] of 21.5%, a viability, T/C [32] of 18.1% and a viability, T/C [33] of 16.6%. For the same molecule, the viability, T/C [34] was 14.8%, the viability, T/C [35] was 16.4% and the viability, T/C [36] was 12.9%.
In the case of `NC1c2ccccc2OC12CCN(c1cnc3c(N4CCCc5ncccc54)n[nH]c3n1)CC2` (stereo not drawn) + CCn1c(-c2cc(N3CCN(C)CC3)cnc2C(C)OC)c2c3cc(ccc31)-c1csc(n1)CC(NC(=O)C1CC1C)C(=O)N1CCCC(N1)C(=O)OCC(C)(C)C2, the IC50 (second compound 0.000949 µM) is reported as 50.8 nM, the IC50 (second compound 0.003 µM) is reported as < 31.6 nM and the IC50 (second compound 0.00949 µM) is reported as < 31.6 nM. The IC50 (second compound 0.03 µM) was < 31.6 nM, the IC50 (second compound 0.0949 µM) was < 31.6 nM and the IC50 (second compound 0.3 µM) was < 31.6 nM. The viability, T/C [1] was 58.2%, the viability, T/C [2] was 40.6% and the viability, T/C [3] was 20.6%. It also gave a viability, T/C [4] of 24.9%, a viability, T/C [5] of 21.2% and a viability, T/C [6] of 8.53%. It also gave a viability, T/C [7] of 42.9%, a viability, T/C [8] of 26.4% and a viability, T/C [9] of 18.9%. For the same molecule, the viability, T/C [10] was 21.3%, the viability, T/C [11] was 18.4% and the viability, T/C [12] was 6.57%. For the same molecule, the viability, T/C [13] was 31.6%, the viability, T/C [14] was 19.2% and the viability, T/C [15] was 18.1%. It also gave a viability, T/C [16] of 15.8%, a viability, T/C [17] of 13.4% and a viability, T/C [18] of 7.23%. The viability, T/C [19] was 23.1%, the viability, T/C [20] was 18.1% and the viability, T/C [21] was 15.7%. The viability, T/C [22] was 15.2%, the viability, T/C [23] was 12.8% and the viability, T/C [24] was 7.77%. It also gave a viability, T/C [25] of 20.1%, a viability, T/C [26] of 16.8% and a viability, T/C [27] of 14.8%. It also gave a viability, T/C [28] of 13.6%, a viability, T/C [29] of 11.8% and a viability, T/C [30] of 7.6%. It also gave a viability, T/C [31] of 15.6%, a viability, T/C [32] of 15.4% and a viability, T/C [33] of 14.4%. The viability, T/C [34] was 10.6%, the viability, T/C [35] was 9.17% and the viability, T/C [36] was 4.89%.
